Experimental data as given in patent US6673745B2, “Herbicidal 3,5-difluoropyridines” (BASF Aktiengesellschaft, priority 1997, dated 2004).

How the values were obtained:
Type in all cases: in vivo
[1] = system: Abutilon theophrasti (ABUTH); test: pre-emergence herbicidal test; conditions: second assessment 21 days after treatment
Description: (§1) To evaluate their herbicidal activity, compounds according to the invention are tested using a representative range of plants: […] The pre-emergence tests involve spraying a liquid formulation of the compound onto the soil in which the seeds of the plant species mentioned above has recently been sown. The soil used in the tests is a prepared horticultural loam. […] In these tests untreated sown soil are used as controls.

[2] = system: Alopecurus myosuroides (ALOMY); test: pre-emergence herbicidal test; conditions: second assessment 21 days after treatment
Description: as §1

[3] = system: Glycine max (GLXMA); test: pre-emergence herbicidal test
Description: as §1

[4] = system: Ipomoea hederacea (IPOHE); test: pre-emergence herbicidal test; conditions: second assessment 21 days after treatment
Description: as §1

[5] = system: Matricaria inodora (MATIN); test: pre-emergence herbicidal test; conditions: second assessment 21 days after treatment
Description: as §1

[6] = system: Setaria viridis (SETVI); test: pre-emergence herbicidal test; conditions: second assessment 21 days after treatment
Description: as §1

[7] = system: Triticum aestivum (TRZAW); test: pre-emergence herbicidal test
Description: as §1

[8] = system: Zea mays (ZEAMX); test: pre-emergence herbicidal test
Description: as §1

[9] = system: Galium aparine (GALAP); test: pre-emergence herbicidal test; conditions: second assessment 21 days after treatment
Description: (§2) To evaluate their herbicidal activity, compounds according to the invention are tested using a representative range of plants:
(§3) The pre-emergence tests involve spraying a liquid formulation of the compound onto the soil in which the seeds of the plant species mentioned above has recently been sown.
(§4) The soil used in the tests is a prepared horticultural loam. The formulations used in the tests are prepared from solutions of the test compounds in acetone containing 0.4% by weight of an alkylphenol/ethylene oxide condensate available under the trade mark TRITON X-155. These acetone solutions are diluted with water and the resulting formulations applied at dosage levels corresponding to 12.5 g, 25 g, 100 g or 400 g of active material per hectare in a volume equivalent to 900 liters per hectare. In these tests untreated sown soil are used as controls.
(§5) From 2 to 4 weeks after treatment, the tests are terminated and each pot is examined and rated according to the rating system set forth below: […]

[10] = system: Hordeum vulgare (HORVW); test: pre-emergence herbicidal test
Description: as §2, §3, §4, §5

[11] = system: Oryza sativa (ORYSA); test: pre-emergence herbicidal test
Description: as §2, §3, §4, §5

[12] = system: Stellaria media (STEME); test: pre-emergence herbicidal test; conditions: second assessment 21 days after treatment
Description: as §2, §3, §4, §5

[13] = system: Veronica persica (VERPE); test: pre-emergence herbicidal test; conditions: second assessment 21 days after treatment
Description: as §2, §3, §4, §5

[14] = system: weeds; test: pre-emergence test, overall weed control; conditions: dose of 25 g/ha
Description: as §2, §3, §4
(§6) From 2 to 4 weeks after treatment, the tests are terminated and each pot is examined and rated according to the rating system set forth below:
(§7) The compounds of the invention have shown to clearly improve selectivity in important crops (maize, soybeans, wheat, barley) when compared to the corresponding compounds of the state of the art having a central 4-methylpyrid-2,6-diyl moiety instead of the 3,5-difluoro-4-methylpyrid-2,6-diyl group according to the invention.

[15] = system: rice, maize and wheat; test: pre-emergence test, crop tolerance and selectivity; conditions: dose of 25 g/ha
Description: as §2, §3, §4, §6, §7

[16] = 0.0125 kg/ha, first assessment 10 days after treatment
[17] = 0.0125 kg/ha, second assessment 21 days after treatment
[18] = 0.025 kg/ha, first assessment 10 days after treatment
[19] = 0.025 kg/ha, second assessment 21 days after treatment
[20] = 0.100 kg/ha, first assessment 10 days after treatment
[21] = 0.100 kg/ha, second assessment 21 days after treatment
[22] = 0.400 kg/ha, first assessment 10 days after treatment
[23] = 0.400 kg/ha, second assessment 21 days after treatment

Cc1c(F)c(Oc2cc(C(F)(F)F)nn2C)nc(-c2ccc(C(F)(F)F)cc2)c1F [Example 1, 3,5-Difluoro4-methyl-2-(1-methyl-3-trifluoromethylpyrazol-5-yloxy)-6-(4-trifluoromethylphenyl)pyridine]
7 (7 - Good herbicidal effect): ALOMY rating ([2]; 0.0125 kg/ha) | SETVI rating ([6]; 0.0125 kg/ha) | SETVI rating ([6]; 0.025 kg/ha) | GALAP rating ([9]; 0.100 kg/ha) | HORVW rating [10, 23]
6 (6 - Herbicidal effect): ABUTH rating ([1]; 0.0125 kg/ha) | TRZAW rating [7, 22] | TRZAW rating [7, 23] | HORVW rating [10, 22]
5 (5 - Definite injury): GLXMA rating [3, 21] | GLXMA rating [3, 23] | TRZAW rating [7, 20] | TRZAW rating [7, 21] | GALAP rating ([9]; 0.025 kg/ha) | HORVW rating [10, 18] | HORVW rating [10, 20] | HORVW rating [10, 21] | ORYSA rating [11, 23]
1 (1 - Trace effect): ZEAMX rating [8, 16] | ZEAMX rating [8, 17] | ORYSA rating [11, 16] | ORYSA rating [11, 18]
3 (3 - Moderate effect): GLXMA rating [3, 20] | IPOHE rating ([4]; 0.025 kg/ha) | TRZAW rating [7, 16] | TRZAW rating [7, 17] | TRZAW rating [7, 18] | TRZAW rating [7, 19] | ZEAMX rating [8, 20] | ZEAMX rating [8, 21] | GALAP rating ([9]; 0.0125 kg/ha) | ORYSA rating [11, 20]
9 (9 - Complete kill): ABUTH rating ([1]; 0.025 kg/ha) | ABUTH rating ([1]; 0.100 kg/ha) | ABUTH rating ([1]; 0.400 kg/ha) | ALOMY rating ([2]; 0.100 kg/ha) | ALOMY rating ([2]; 0.400 kg/ha) | IPOHE rating ([4]; 0.100 kg/ha) | IPOHE rating ([4]; 0.400 kg/ha) | MATIN rating ([5]; 0.100 kg/ha) | MATIN rating ([5]; 0.400 kg/ha) | SETVI rating ([6]; 0.100 kg/ha) | SETVI rating ([6]; 0.400 kg/ha) | STEME rating ([12]; 0.0125 kg/ha) | STEME rating ([12]; 0.025 kg/ha) | STEME rating ([12]; 0.100 kg/ha) | STEME rating ([12]; 0.400 kg/ha) | VERPE rating ([13]; 0.025 kg/ha) | VERPE rating ([13]; 0.100 kg/ha) | VERPE rating ([13]; 0.400 kg/ha)
well tolerated: crop tolerance [15]
2 (2 - Slight effect): GLXMA rating [3, 16] | GLXMA rating [3, 18] | ZEAMX rating [8, 18] | ZEAMX rating [8, 19] | ORYSA rating [11, 17] | ORYSA rating [11, 19]
4 (4 - Injury): GLXMA rating [3, 17] | GLXMA rating [3, 19] | GLXMA rating [3, 22] | HORVW rating [10, 16] | HORVW rating [10, 17] | HORVW rating [10, 19] | ORYSA rating [11, 21] | ORYSA rating [11, 22]
8 (8 - Approaching complete kill): ALOMY rating ([2]; 0.025 kg/ha) | MATIN rating ([5]; 0.0125 kg/ha) | MATIN rating ([5]; 0.025 kg/ha) | GALAP rating ([9]; 0.400 kg/ha) | VERPE rating ([13]; 0.0125 kg/ha)
good overall levels of weed control: overall levels of weed control [14]
